The text below walks through data of US20240150396A1 (The Texas A&M University System, priority 2021, published 2024).

This assay deals with cruzain (Trypanosoma cruzi, UniProt P25779). The experiment in a line: Kinetic parameters of peptide substrates for cruzain. Format: biochemical. To be noted: for Km / kcat / kcat/Km: pH 7.5, 25° C., 10% DMSO; for kcat rel: relative to Cbz-Phe-Arg-AMC. As to the method: All enzyme assays were performed at 25° C. Initial rates of the peptidolytic reaction catalyzed by cruzain were measured by monitoring the fluorescence generated by cleavage of the dipeptide-AMC bond. Assays were conducted in 96-well plates (Greiner; flat-bottom, clear black plates) in a total volume of 250 μL, containing either 50 mM MES (pH 7.5), 50 mM TAPSO, 100 mM DEA, 1 mM CHAPS, 1 mM Na2EDTA, 5 mM DTT, and 10% DMSO (v/v) or 50 mM sodium acetate (pH 5.5), 50 mM MES, 100 mM TEA, 1 mM CHAPS, 1 mM Na2EDTA, 5 mM DTT, and 10% DMSO (v/v). Substrates were dissolved in 100% DMSO and were then diluted 10-fold such that when added to reaction mixtures, final DMSO concentration was 10% (v/v). Reactions were initiated with the addition of 1-10 μL of cruzain (final concentrations: 0.1-3.0 nM (preincubation studies)). Fluorescence was measured on either a SpectraMax M5 (Molecular Devices) or a Synergy HTX (BioTek, Winooski, VT) microplate reader (λex=360 nm, λem=460 nm). Initial rates were determined from continuous kinetic time courses and calculated from the earliest time points, typically at less than 10 min.
Initial velocity data for cruzain-catalyzed reactions of fluorogenic peptide substrates were determined by fitting to eq 1 using GraphPad Prism 6.0 or SigmaPlot 12.0. For eq 1, kcat is the turnover number, [E]t is the concentration of active sites of cruzain, and Ka is the Michaelis constant for the substrate A. Cruzain concentrations were determined by spectrophotometric analysis of purified sample solutions as described.^44

SMILES strings stand for the structures. “And” between values parts separate entries of the source, which are not always exact repeats. Equal values may be shown once. Residues, ends and D or L forms follow the SMILES beside them. *: point of attachment. AMC = Cc1cc(=O)oc2cc(N*)ccc12; Cbz = O=C(OCc1ccccc1)*

Sequence of cruzain (P25779 123-467 limits assumed): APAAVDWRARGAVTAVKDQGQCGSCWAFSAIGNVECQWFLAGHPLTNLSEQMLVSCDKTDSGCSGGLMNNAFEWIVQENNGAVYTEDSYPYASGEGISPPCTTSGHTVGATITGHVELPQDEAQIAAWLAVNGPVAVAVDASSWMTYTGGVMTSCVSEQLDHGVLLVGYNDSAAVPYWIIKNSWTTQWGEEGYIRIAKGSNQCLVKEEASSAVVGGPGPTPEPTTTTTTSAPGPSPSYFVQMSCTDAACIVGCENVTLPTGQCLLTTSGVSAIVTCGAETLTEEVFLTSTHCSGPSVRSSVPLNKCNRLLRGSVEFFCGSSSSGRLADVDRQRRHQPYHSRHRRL

Take `Cc1cc(=O)oc2cc(NC(=O)[C@H](Cc3ccccc3)NC(=O)[C@H](Cc3ccccc3)NC(=O)N3CCN(C)CC3)ccc12` [Compound S11, NMePip-Phe-Phe-AMC]: the Km (as a rule, the substrate concentration at which the rate is half of its maximum) worked out at 14 ± 4 µM; the kcat (commonly the maximal rate divided by the concentration of active sites) turned out to be 2.8 ± 0.06 s⁻¹; the kcat/Km (as a rule, the turnover number divided by the Michaelis constant) was 200000 ± 40000 M⁻¹ s⁻¹; the kcat rel came to 0.29.

With `Cc1cc(=O)oc2cc(NC(=O)C(CCc3ccccc3)NC(=O)C(CCCN=C(N)N)NC(=O)OCc3ccccc3)ccc12` (stereo not drawn) [Compound S10, Cbz-Arg-hPhe-AMC], the Km was 6.8 µM; the kcat is 4.9 s⁻¹ and 4.9 ± 0.1 s⁻¹; the kcat/Km came to 700000 ± 40000 M⁻¹ s⁻¹; the kcat rel turned out to be 0.51.

Turning to `Cc1cc(=O)oc2cc(NC(=O)[C@H](Cc3ccccc3)NC(=O)[C@H](Cc3ccccc3)NC(=O)OCc3ccccc3)ccc12` [Compound S9, Cbz-Phe-Phe-AMC] (Cbz-Phe-Phe-{AMC}), the Km stood at 0.34 µM, the turnover number (kcat) was 0.26 ± 0.01 s⁻¹, the specificity constant (kcat/Km) came to 800000 ± 200000 M⁻¹ s⁻¹ and the kcat rel was determined as 0.03.
